Assay results reported in PMC7055211 (Scientific Reports, 2020).
“Also recorded” adds a separate entry of the source. Like-named read-outs stand apart in the source and are kept apart here.

What was measured:
EBOV (Zaire) = experiment: microbe, parasite or virus in culture; format: cell-based, Ebola virus
[1] = test system: pseudotyped virus using the EBOV Env (G) protein; details: cited from earlier work
[2] = WST-1 cellular metabolism measurement for the five prazoles (CC50); format: cell-based; details: human, 293 T cells, 50% metabolic activity of control, WST reagent, read-out: Cytotoxicity (CC50)
HIV-1 = experiment: microbe, parasite or virus in culture; format: cell-based; details: for EC50: Human immunodeficiency virus 1, HEK-293T
[3] = Prazole degradation rate: prodrug remaining in pH 5.8 buffer by 1D proton NMR; details: for prodrug remaining at 17 hours: 1D proton NMR
in vitro [4] = details: human
DENV 2 strain 16681 = format: cell-based, Dengue virus type 2
in vitro [5] = details: human; remark: listed apart in the source
[6] = test system: HIV-1 P7L-Gag (disrupted PTAP motif); format: cell-based
HIV-1 Gag-HA VLP = format: cell-based
in vitro [7] = details: human; remark: listed apart in the source
Tsg101 UEV domain = target: T1, Tsg101 UEV domain (Homo sapiens, UniProt Q99816); experiment: NMR chemical shift perturbations of Tsg101 UEV domain complexed with prazoles; format: binding; details: 15N-Tsg101 UEV, pH 5.8, 300 K
T1 construct: purified ^15N-labeled Tsg101 UEV domain protein complexed to various prazoles; made in house
T1 sequence (Q99816 2-145 limits assumed): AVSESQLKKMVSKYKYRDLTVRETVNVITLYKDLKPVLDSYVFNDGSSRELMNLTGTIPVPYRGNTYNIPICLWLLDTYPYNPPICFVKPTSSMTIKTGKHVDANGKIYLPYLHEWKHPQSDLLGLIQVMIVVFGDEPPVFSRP

[8] = test system: Mahoney strain of poliovirus; format: cell-based, Poliovirus Type I Mahoney; details: 293 T cells, up to 100 μM, plaque assay
ZIKV PRVABC59 = format: cell-based, Zika virus
MAYV TRVL 15537 = format: cell-based, Mayaro virus
CLIX-FZ cells = experiment: WST-1 metabolic activity of CLIX-FZ cells; format: cell-based; details: 40 μM concentration range, WST-1, 24 hr
Procedure: Figure 4 EBV replication is tenatoprazole-sensitive. Latent EBV was reactivated in CLIX-FZ cells by addition of doxycycline in the presence of DMSO (black bars) or DMSO plus tenatoprazole (20 µM or 40 µM, grey bars); non-treated cells are shown as white bars. After 72 hr, cells and conditioned media were harvested. Panel A, extracellular EBV DNA measured in pellet fraction of conditioned media. Panel B, intracellular EBV DNA measured in lysed cells. EBV DNA was determined by quantitative-PCR (qPCR) for the EBV BALF5 gene. EBV DNA copy number from each preparation was normalized to the DMSO-treated control. Panel C, metabolic activity of cells in the presence of tenatoprazole. The cells were grown for 24 hr in media containing the indicated concentrations of doxycycline and tenatoprazole followed by assessment of metabolic activity assessed using the WST-1 assay. Panel D, fractionation of intracellular DNA. […] DNA was extracted from each fraction and the relative number of EBV genomes from each fraction was determined by qPCR using primers directed towards the EBV BALF5 gene. […]
Metabolic activity of the cells in the presence of the prazole drugs for 24 hr was assessed using the WST-1 assay (Roche Applied Science) following the manufacturer's protocol.

EBV = format: cell-based, Epstein Barr virus; details: CLIX-FZ; for Virus Production (resistant or susceptible), EBV: BALF5
[9] = read-out: Approximate Effective Concentration (EC50)
[10] = read-out: EC50, inhibition of HIV-1 production
[11] = doxycycline, 20 µM and 40 μM, 72 hr, qPCR

## COc1ccc2nc([S@@+]([O-])Cc3ncc(C)c(OC)c3C)[nH]c2c1 [Esomeprazole, Esomeprazole magnesium hydrate]
EBOV (Zaire)
  inhibitory effect on EBOV: no significant inhibitory effect
[1]
  EC50: 50 µM
[2]
  CC50 at 24 h: 75 µM
HIV-1
  Selectivity Index (CC50/EC50): 1.0
HIV-1; [9]
  EC50: 75 µM
HIV-1; [10]
  EC50: ~75 µM
[3]; 2 mM prazole, 300 K
  prodrug remaining at 17 hours: ~ 55%

## Cc1c(OCC(F)(F)F)ccnc1C[S@@+]([O-])c1nc2ccccc2[nH]1 [dexlansoprazole]
[3]; Supplemental Fig. 3A
  conversion rate, dexlansoprazole compared with lansoprazole: no significant difference in rates

## COCCCOc1ccnc(C[S+]([O-])c2nc3ccccc3[nH]2)c1C (stereo not shown) [Rabeprazole, rabeprazole sodium]
[2]
  CC50 at 24 h: 150 µM
HIV-1
  inhibition of HIV-1 production (in words): strongest inhibitory effect
HIV-1; HIV-1, Table 3
  Selectivity Index (CC50/EC50): 10
HIV-1; [9]
  EC50: 15 µM
HIV-1; [10]
  EC50: ~15 µM
[3]; 2 mM prazole, 300 K
  time course of prodrug disappearance: completely disappearing in less than ten hours

## COc1ccc2[nH]c([S+]([O-])Cc3ncc(C)c(OC)c3C)nc2n1 (stereo not shown) [Tenatoprazole, tenatoprazole]
EBOV (Zaire)
  Selectivity index (CC50/EC50), EBOV: Susceptible (1.6)
EBOV (Zaire); Zaire ebolavirus, HeLa, 24 h, read-out: EC50, inhibition of EBOV spread
  EC50: 80 µM
In vitro [4]
  CC50: 129 µM
DENV 2 strain 16681
  DENV replication, tenatoprazole susceptibility: no tenatoprazole susceptibility
DENV 2 strain 16681; 293 T, infectivity, FFU
  Virus Production (resistant or susceptible), DENV: Resistant
In vitro [5]
  viability at 80 µM: > 80%
[6]; 293T, concentration range to which the WT is susceptible
  Alix rescue of P7L-Gag release in presence of tenatoprazole: 2–3 fold
[6]; in the presence or absence of the drug
  Alix-mediated stimulation of p25 to p24 maturation: ~ 3 fold
HIV-1 Gag-HA VLP
  Gag accumulation in cell lysate: drug concentration-dependent decline in Gag accumulation
  VLP production: dose-dependent inhibition of VLP production
  VLP release efficiency: no change
In vitro [7]
  CC50: 123 µM
Tsg101 UEV domain
  chemical shift change of backbone amide of S41: 0.29 ppm
[8]
  PV tenatoprazole susceptibility: no tenatoprazole susceptibility
ZIKV PRVABC59
  reduction in ZIKV infectious virus output: < 2 fold
ZIKV PRVABC59; 293 T, infectivity, PFU
  Virus Production (resistant or susceptible), ZIKV: Resistant
MAYV TRVL 15537
  Virus Production (resistant or susceptible), MAYV: sensitive; also recorded: Susceptible (2.5)
  reduction of MAYV titer: > 2 log10
MAYV TRVL 15537; 293 T
  Selectivity index (CC50/EC50), MAYV: Susceptible (2.5)
[2]
  CC50 at 24 h: 125 µM
CLIX-FZ cells
  metabolic capacity of host CLIX-FZ cells: some impairment of metabolic capacity
HIV-1
  Virus Production (resistant or susceptible), HIV-1: sensitive
HIV-1; HIV-1, Table 3
  Selectivity Index (CC50/EC50): 2.5
HIV-1; [9]
  EC50: 50 µM
HIV-1; [10]
  EC50: ~50 µM
[3]; 2 mM prazole, 300 K
  prodrug remaining at 17 hours: ~ 5%
EBV
  Selectivity index (CC50/EC50), EBV: ~4
EBV; [11]
  intracellular EBV load: increased
  number of released (extracellular) EBV particles: dose-dependent reduction
EBV; qPCR
  Virus Production (resistant or susceptible), EBV: Susceptible
EBV; qPCR, listed as tenatoprazole
  Virus Production (resistant or susceptible), EBV: sensitive

## Cc1c(OCC(F)(F)F)ccnc1C[S+]([O-])c1nc2ccccc2[nH]1 (stereo not shown) [Lansoprazole, lansoprazole]
[2]
  CC50 at 24 h: 50 µM
HIV-1; HIV-1, Table 3
  Selectivity Index (CC50/EC50): 2.0
HIV-1; [9]
  EC50: 25 µM
HIV-1; [10]
  EC50: ~25 µM
[3]; 2 mM prazole, 300 K
  prodrug remaining at 17 hours: 20%

## COc1ccnc(C[S+]([O-])c2nc3ccc(OC(F)F)cc3[nH]2)c1OC (stereo not shown) [Pantoprazole, pantoprazole sodium hydrate]
[2]
  CC50 at 24 h: 40 µM
HIV-1
  inhibition of HIV-1 production (in words): negligible inhibitory activity
HIV-1; HIV-1, Table 3
  Selectivity Index (CC50/EC50): <0.5
HIV-1; [9]
  EC50: > 75 µM
[3]; 2 mM prazole, 300 K
  prodrug remaining at 17 hours: 96%
